Results: patent publication US9029384B2, “Phosphatidylinositol 3-kinase inhibitors” (Gilead Calistoga LLC, priority 2012, dated 2015)
Read-outs that look alike come from different tables or passages of the source.

Legend:
[1] = Hepatocyte stability, 0.01% final DMSO, 1 μM substrate (t1/2^b); type: in vitro ADME; settings: human, hepatocytes, TA with 0.01% final DMSO
Protocol: Alternatively, assay reagents and/or conditions can be modified in determining the inhibitory activities to PI3K isomers. In additional studies, similar assay using TA and 0.01% final DMSO concentration were incubated with 1 million hepatocytes/mL at 1 μM substrate in duplicate. The incubation was carried out at 37° C. with 5% CO2 and saturating humidity.

basophils = experiment: Basophil activation in human whole blood (Flow2 CAST kit, CD63 positive cells); type: cell-based; settings: Homo sapiens
Method in brief: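 Human whole blood (K2-EDTA) preincubated 60 minutes at 37° C with compound serial dilutions or DMSO (0.3% final), then stimulated with anti-FcεRI mAb or fMLP and stained for CD63/CCR3. Percent CD63+ among ≥200 CCR3-high basophils by flow cytometry, normalized to stimulated vehicle as 100%. EC50 from four-parameter fits, geometric means in nM, concentrations corrected for reagent dilution.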

PI3Kδ = molecular target: T1, PI3Kδ (Homo sapiens, UniProt O00329); experiment: Enzymatic activity of PI3K isoforms, TR-FRET assay (PIP3 formation); type: biochemical
T1 construct: made in house
T1 sequence (O00329 whole entry, canonical isoform): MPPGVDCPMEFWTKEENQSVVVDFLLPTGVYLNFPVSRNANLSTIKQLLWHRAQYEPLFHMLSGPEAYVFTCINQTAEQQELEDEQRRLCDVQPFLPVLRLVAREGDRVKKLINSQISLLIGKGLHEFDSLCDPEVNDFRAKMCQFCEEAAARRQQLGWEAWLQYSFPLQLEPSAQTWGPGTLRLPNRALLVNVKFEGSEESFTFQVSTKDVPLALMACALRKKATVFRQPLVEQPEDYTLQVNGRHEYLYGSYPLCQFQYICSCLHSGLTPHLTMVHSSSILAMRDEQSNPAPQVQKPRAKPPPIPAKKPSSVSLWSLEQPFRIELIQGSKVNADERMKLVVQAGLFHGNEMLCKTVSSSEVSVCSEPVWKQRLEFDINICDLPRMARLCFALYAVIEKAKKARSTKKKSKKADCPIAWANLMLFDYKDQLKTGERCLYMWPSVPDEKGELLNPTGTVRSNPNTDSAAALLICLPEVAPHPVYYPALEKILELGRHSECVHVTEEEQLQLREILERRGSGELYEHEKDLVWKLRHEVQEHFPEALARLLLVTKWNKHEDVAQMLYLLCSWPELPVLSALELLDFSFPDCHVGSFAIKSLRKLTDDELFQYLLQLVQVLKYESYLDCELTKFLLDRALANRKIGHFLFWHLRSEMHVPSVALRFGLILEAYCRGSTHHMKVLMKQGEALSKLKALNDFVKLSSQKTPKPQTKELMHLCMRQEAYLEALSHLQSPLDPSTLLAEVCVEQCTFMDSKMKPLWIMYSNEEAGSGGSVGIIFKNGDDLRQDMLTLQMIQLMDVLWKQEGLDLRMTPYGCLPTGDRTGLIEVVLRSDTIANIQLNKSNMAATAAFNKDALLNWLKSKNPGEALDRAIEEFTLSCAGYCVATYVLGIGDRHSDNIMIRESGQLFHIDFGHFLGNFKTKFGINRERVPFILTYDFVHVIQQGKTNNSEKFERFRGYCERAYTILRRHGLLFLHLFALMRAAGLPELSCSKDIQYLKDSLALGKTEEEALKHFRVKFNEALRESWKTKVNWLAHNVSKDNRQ
T1 sequence (P27986 whole entry partner, canonical isoform): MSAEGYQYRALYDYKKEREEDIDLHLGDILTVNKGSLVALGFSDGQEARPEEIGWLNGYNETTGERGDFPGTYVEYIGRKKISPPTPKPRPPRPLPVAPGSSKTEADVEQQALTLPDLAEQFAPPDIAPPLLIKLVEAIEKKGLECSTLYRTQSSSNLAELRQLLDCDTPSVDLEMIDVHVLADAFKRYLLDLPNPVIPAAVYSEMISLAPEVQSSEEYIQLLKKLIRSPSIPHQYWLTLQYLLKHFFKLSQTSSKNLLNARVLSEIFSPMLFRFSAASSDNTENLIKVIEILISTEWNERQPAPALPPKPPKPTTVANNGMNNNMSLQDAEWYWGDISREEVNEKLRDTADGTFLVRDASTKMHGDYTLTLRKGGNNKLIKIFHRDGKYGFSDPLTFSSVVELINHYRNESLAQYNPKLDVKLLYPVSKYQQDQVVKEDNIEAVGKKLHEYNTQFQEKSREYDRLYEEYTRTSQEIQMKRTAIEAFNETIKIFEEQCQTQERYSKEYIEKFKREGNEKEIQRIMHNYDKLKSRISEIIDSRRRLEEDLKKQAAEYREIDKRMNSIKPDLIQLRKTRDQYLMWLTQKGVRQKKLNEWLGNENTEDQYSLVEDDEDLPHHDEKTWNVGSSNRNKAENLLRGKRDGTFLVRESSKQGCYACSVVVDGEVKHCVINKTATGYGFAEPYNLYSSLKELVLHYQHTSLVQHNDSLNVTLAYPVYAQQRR
Method in brief: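 Recombinant heterodimeric class I PI3K; PIP3 product measured by TR-FRET competition with labelled PIP3 for Eu-GRP-1 PH domain. Reaction 30 min at 25 °C, stopped with 10 mM EDTA.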

[2] = Hepatocyte stability, 1% final DMSO, 2 μM substrate (t1/2^a); type: in vitro ADME; settings: human, cryopreserved hepatocytes, TA with 1% final DMSO
Protocol: This assay was used to evaluate the metabolic stability of test articles (TA) following incubation in cryopreserved hepatocytes by monitoring parent drug disappearance via […]. The TA with 1% final DMSO concentration was incubated with 1 million hepatocytes/ml at 2 μM substrate in duplicate. The incubation was carried out at 37° C. with 5% CO2 and saturating humidity.

[3] = 1 μM substrate, samples at 0, 1, 3, 6 hours, read-out: human hepatocyte t½^b
[4] = basophils activated with anti-FcεRI mAb or fMLP, geometric mean
[5] = PI3Kδ, TR-FRET, 2×Km ATP, 10 μM PIP2, read-out: IC50
[6] = 2 μM substrate, samples at 0, 1, 2, 4 hours, read-out: human hepatocyte t½^a
[7] = human hepatocytes, read-out: t1/2^b
[8] = human hepatocytes, read-out: t1/2^a

SMILES	half-life at 1 μM [1, 3]	EC50 (basophils; [4])	IC50 (PI3Kδ; [5])	half-life at 2 μM [2, 6]	half-life at 1 μM [1, 7]	EC50 (basophils; basophil activation)	IC50 (PI3Kδ)	half-life at 2 μM [2, 8]
CC(Nc1nc(N)nc(N)c1C#N)c1nc2cccc(Cl)c2c(=O)n1-c1cccc(F)c1 (single isomer, unassigned) [Compound 108a]	180 to 360 min	1 to 10 nM	< 1 nM	> 600 min				
CC(Nc1nc(N)nc(N)c1C(N)=O)c1nc2cccc(Cl)c2c(=O)n1-c1cc(F)cc(F)c1 (single isomer, unassigned) [Compound 90a]	180 to 360 min	1 to 10 nM	1 to 10 nM	> 600 min				
C[C@H](Nc1ncnc(N)c1C#N)c1nc2cccc(Cl)c2c(=O)n1-c1cc(F)cc(F)c1 [Z, reference compound]		10 to 50 nM		60 to 180 min	< 120 min	> 10 nM	1 to 10 nM	< 180 min
CC(Nc1nc(N)nc(N)c1C#N)c1nc2c(C#N)cccc2c(=O)n1-c1ccccc1 (single isomer, unassigned) [Compound 122a]	> 600 min	1 to 10 nM	1 to 10 nM	> 600 min				
C[C@H](Nc1ncnc2[nH]cnc12)c1nc2cccc(Cl)c2c(=O)n1-c1ccccc1 [X, reference compound]		1 to 10 nM		60 to 180 min	< 120 min	> 5 nM		< 60 min
CC(Nc1nc(N)nc(N)c1C#N)c1nc2cccc(Cl)c2c(=O)n1-c1ccccc1 (single isomer, unassigned) [Compound 49a]	180 to 360 min	< 1 nM	< 1 nM	> 600 min	> 240 min	< 0.5 nM		> 600 min
C[C@H](Nc1ncnc(N)c1C#N)c1nc2cccc(Cl)c2c(=O)n1-c1ccccc1 [Y, reference compound]		10 to 50 nM		< 60 min	< 120 min	> 15 nM	< 1 nM	< 120 min
CC(Nc1nc(N)nc(N)c1C#N)c1nc2cccc(F)c2c(=O)n1-c1cccc(C#N)c1 (single isomer, unassigned) [Compound 38a]	> 600 min	1 to 10 nM	10 to 50 nM	> 600 min				
CCC(Nc1nc(N)nc(N)c1C#N)c1nc2c(C)ccc(F)c2c(=O)n1-c1cc(F)cc(F)c1 (single isomer, unassigned) [Compound 37a]	180 to 360 min	10 to 50 nM	10 to 50 nM	360 to 600 min				
CC(Nc1nc(N)nc(N)c1C#N)c1nc2cccc(F)c2c(=O)n1-c1cccc(C(F)F)c1 (single isomer, unassigned) [Compound 97a]	180 to 360 min	1 to 10 nM	1 to 10 nM	> 600 min				
Cc1ccc(F)c2c(=O)n(-c3ccccc3)c(C(C)Nc3nc(N)nc(N)c3C#N)nc12 (single isomer, unassigned) [Compound 61a]	180 to 360 min	< 1 nM	1 to 10 nM	> 600 min				
CC(Nc1nc(N)nc(N)c1C#N)c1nc2cccc(Cl)c2c(=O)n1-c1cccc(C(F)F)c1 (single isomer, unassigned) [Compound 106a]	60 to 180 min	1 to 10 nM	< 1 nM	> 600 min				
CC(Nc1nc(N)nc(N)c1C#N)c1nc2cccc(F)c2c(=O)n1-c1cc(Cl)cc(Cl)c1 (single isomer, unassigned) [Compound 42a]	60 to 180 min	1 to 10 nM	10 to 50 nM	> 600 min				

The next lines start with results.

half-life at 1 μM [1, 3]	EC50 (basophils; [4])	IC50 (PI3Kδ; [5])	half-life at 2 μM [2, 6]	SMILES	half-life at 1 μM [1, 7]	EC50 (basophils; basophil activation)	IC50 (PI3Kδ)	half-life at 2 μM [2, 8]
60 to 180 min	1 to 10 nM	10 to 50 nM	> 600 min	CCC(Nc1nc(N)nc(N)c1C#N)c1nc2c(F)ccc(F)c2c(=O)n1-c1cc(F)cc(F)c1 (single isomer, unassigned) [Compound 27a]				
360 to 600 min	< 1 nM	1 to 10 nM	> 600 min	CCC(Nc1nc(N)nc(N)c1C#N)c1nc2c(F)cccc2c(=O)n1-c1cc(F)cc(F)c1 (single isomer, unassigned) [Compound 17a]				
180 to 360 min	1 to 10 nM	1 to 10 nM	> 600 min	CC(Nc1nc(N)nc(N)c1C#N)c1nc2c(C#N)cccc2c(=O)n1-c1cc(F)cc(F)c1 (single isomer, unassigned) [Compound 101a]				
180 to 360 min	1 to 10 nM	1 to 10 nM	360 to 600 min	CC(Nc1nc(N)nc(N)c1C#N)c1nc2c(F)ccc(F)c2c(=O)n1-c1cc(F)cc(F)c1 (single isomer, unassigned) [Compound 21a]				
60 to 180 min	1 to 10 nM	1 to 10 nM	> 600 min	CC(Nc1nc(N)nc(N)c1C#N)c1nc2c(Cl)cccc2c(=O)n1-c1cc(F)cc(F)c1 (single isomer, unassigned) [Compound 71a]				
> 600 min	1 to 10 nM	10 to 50 nM	> 600 min	CCC(Nc1nc(N)nc(N)c1C#N)c1nc2ccccc2c(=O)n1-c1cc(F)cc(F)c1 (single isomer, unassigned) [Compound 36a]				
180 to 360 min	1 to 10 nM	10 to 50 nM	> 600 min	CC(Nc1nc(N)nc(N)c1C#N)c1nc2cccc(F)c2c(=O)n1-c1cc(F)cc(C(F)F)c1 (single isomer, unassigned) [Compound 54a]				
360 to 600 min	1 to 10 nM	1 to 10 nM	> 600 min	CC(Nc1nc(N)nc(N)c1C#N)c1nc2cccc(C(F)F)c2c(=O)n1-c1cc(F)cc(F)c1 (single isomer, unassigned) [Compound 52a]				
60 to 180 min	1 to 10 nM	1 to 10 nM	> 600 min	CC(Nc1nc(N)nc(N)c1C#N)c1nc2c(Cl)ccc(F)c2c(=O)n1-c1cc(F)cc(F)c1 (single isomer, unassigned) [Compound 67a]				
60 to 180 min	10 to 50 nM	10 to 50 nM	> 600 min	CC(Nc1nc(N)nc(N)c1C#N)c1nc2cccc(F)c2c(=O)n1-c1cc(F)cc(Cl)c1 (single isomer, unassigned) [Compound 44a]				
60 to 180 min	< 1 nM	< 1 nM	360 to 600 min	C[C@H](Nc1nc(N)nc(N)c1C#N)c1nc2cccc(Cl)c2c(=O)n1-c1cc(F)cc(F)c1 [Compound 1a, 2,4-diamino-6-((1-(5-chloro-3-(3,5-difluorophenyl)-4-oxo-3,4-dihydroquinazolin-2-yl)ethyl)amino)pyrimidine-5-carbonitrile]	> 60 min	< 0.5 nM		> 540 min
180 to 360 min	1 to 10 nM	1 to 10 nM	> 600 min	CC(Nc1nc(N)nc(N)c1C#N)c1nc2c(F)cccc2c(=O)n1-c1cc(F)cc(F)c1 (single isomer, unassigned) [Compound 16a]				
60 to 180 min	1 to 10 nM	1 to 10 nM	> 600 min	CC[C@H](Nc1nc(N)nc(N)c1C#N)c1nc2cccc(F)c2c(=O)n1-c1cc(F)cc(F)c1 [Compound 77a, (S)-2,4-diamino-6-((1-(3-(3,5-difluorophenyl)-5-fluoro-4-oxo-3,4-dihydroquinazolin-2-yl)propyl)amino)pyrimidine-5-carbonitrile]				
180 to 360 min	1 to 10 nM	1 to 10 nM	> 600 min	CC(Nc1nc(N)nc(N)c1C#N)c1nc2cccc(F)c2c(=O)n1-c1cc(F)cc(F)c1 (single isomer, unassigned) [Compound 10a]				
360 to 600 min	1 to 10 nM	1 to 10 nM	> 600 min	CC(Nc1nc(N)nc(N)c1C#N)c1nc2ccc(F)cc2c(=O)n1-c1cc(F)cc(F)c1 (single isomer, unassigned) [Compound 11a]				
